Measured values published in patent publication US20230220443A1, “CHARACTERIZATION OF S-ADENOSYL-L-METHIONINE-CONSUMING ENZYMES WITH 1-STEP EZ-MTASE: A UNIVERSAL COUPLED-ASSAY” (ALBERT EINSTEIN COLLEGE OF MEDICINE, priority 2017, published 2023).
“Also recorded” adds a separate entry of the source.

What was measured:
[1] = target: T1, CePRMT5 (Caenorhabditis elegans, UniProt P46580); experiment: 1-Step EZ-MTase UV-based coupled assay, CePRMT5 kinetics; type: biochemical; conditions: for Km / kcat: pH=7.60, co-substrate saturating, 4 μM TM0936, 263 nm (282 nm for 8-aza-SAM); for catalytic efficiency: saturating H4 peptide
T1 construct: made in house
T1 sequence (P46580 1-734): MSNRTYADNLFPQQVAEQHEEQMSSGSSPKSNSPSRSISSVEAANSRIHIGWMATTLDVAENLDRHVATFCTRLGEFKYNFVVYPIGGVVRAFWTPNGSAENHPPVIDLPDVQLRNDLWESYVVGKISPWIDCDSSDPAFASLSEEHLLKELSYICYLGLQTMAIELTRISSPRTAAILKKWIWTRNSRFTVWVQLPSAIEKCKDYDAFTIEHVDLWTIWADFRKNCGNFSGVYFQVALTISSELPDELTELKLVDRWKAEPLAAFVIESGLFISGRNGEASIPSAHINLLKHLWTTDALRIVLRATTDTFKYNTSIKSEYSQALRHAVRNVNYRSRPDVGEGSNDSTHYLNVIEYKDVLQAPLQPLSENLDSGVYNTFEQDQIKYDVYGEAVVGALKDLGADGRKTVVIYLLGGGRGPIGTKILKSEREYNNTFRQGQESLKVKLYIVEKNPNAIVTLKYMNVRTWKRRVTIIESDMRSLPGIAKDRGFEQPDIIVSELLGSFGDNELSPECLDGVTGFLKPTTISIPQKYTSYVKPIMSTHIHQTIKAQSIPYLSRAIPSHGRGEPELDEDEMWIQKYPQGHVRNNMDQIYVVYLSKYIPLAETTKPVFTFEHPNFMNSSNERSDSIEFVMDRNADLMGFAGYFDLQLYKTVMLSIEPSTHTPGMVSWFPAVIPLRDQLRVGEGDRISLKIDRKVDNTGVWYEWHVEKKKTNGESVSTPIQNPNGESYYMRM
Method: The 250-μL reaction mixtures from a same row contained 50 mM phosphate buffer pH=7.60, 1 mM βME, 10% glycerol, 4 μM coupling deaminase TM0936, 300 nM CePRMT5 and various peptide concentrations (5-180 μM; in the first well, peptide acceptor was omitted to account for background signal—natural decomposition of SAM). The methyltransfer reactions started upon addition of SAM (25 μM saturating final concentration) and absorbance was recorded.
The 250-μL reaction mixtures from a same row contained 50 mM phosphate buffer pH=7.60, 1 mM βME, 10% glycerol, 4 μM coupling deaminase TM0936, 300 nM CePRMT5 and various SAM concentrations (2.35-47.0 μM). […] Initial rates were first corrected for background signal, then plotted against SAM concentrations and fitted to the Morrison kinetic model to yield corresponding kinetic parameters.
Kinetic behavior for 8-aza-SAM against MTases (acceptor sat.)—Briefly, kinetic parameters were determined at 20° C. in a UV-Star 96-well flat bottom plate (Greiner Bio-One, #655801) by continuous monitoring of absorbance at 282 nm using a SpectraMax M5 instrument (Molecular Devices). As for SAM experiments, the measurements consisted of two experimental subsets: MTase reactions (both 8-aza-SAM and acceptor added) and MTase blanks (8-aza-SAM was added without acceptor to account for natural 8-aza-SAM decomposition). The 250-μL (60-μL) reaction mixtures from a same row contained 50 mM phosphate buffer pH=7.60 (7.80), 1 mM βME, 10% glycerol (5% glycerol, 100 μM MgCl2), 4 μM coupling deaminase TM0936, either 1.5 μM CePRMT5 or 402 nM TbPRMT7 (or 610 nM GsSDMT) and various 8-aza-SAM concentrations. […] Initial rates were first corrected for background signal, then plotted against 8-aza-SAM concentrations and fitted to the Michaelis-Menten equation to yield corresponding kinetic parameters.

[2] = target: T2, deaminase TM0936 (Thermotoga maritima, UniProt Q9X034); experiment: Deamination by coupling enzyme TM0936; type: biochemical
T2 construct: polyhistidine; made in house; host or cells: bacteria
T2 sequence (Q9X034 1-406): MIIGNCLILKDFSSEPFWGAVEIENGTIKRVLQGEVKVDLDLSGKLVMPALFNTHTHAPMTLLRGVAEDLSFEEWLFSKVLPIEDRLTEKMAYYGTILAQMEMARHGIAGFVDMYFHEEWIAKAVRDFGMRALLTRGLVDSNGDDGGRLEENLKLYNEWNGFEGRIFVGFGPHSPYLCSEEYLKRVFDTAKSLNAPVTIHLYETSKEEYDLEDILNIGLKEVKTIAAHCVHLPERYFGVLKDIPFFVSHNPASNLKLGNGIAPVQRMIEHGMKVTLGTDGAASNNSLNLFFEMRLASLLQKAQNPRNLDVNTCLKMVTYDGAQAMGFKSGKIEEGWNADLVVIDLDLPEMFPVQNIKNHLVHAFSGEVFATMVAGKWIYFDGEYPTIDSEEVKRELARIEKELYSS
Method: FIG. 9A-9D. Sinefungin is a positive control compatible with the 1-Step EZ-MTase assay. (A) MTAN-based assays catabolize the methyltransferase inhibitor sinefungin (SIN). […] (C) pH-dependence of the reaction between sinefungin and TM0936. […] (D) Inhibition of the sarcosine/dimethylglycine methyltransferase by sinefungin. […] The initial methyltransfer rates were recorded at 263 nm. Further analysis provided the inhibition constant Ki (1.8±0.4 μM).

[3] = target: T3, GsSDMT (Galdieria sulphuraria, UniProt M2XPA0); conditions: lit. (54); cited from earlier work
T3 sequence (M2XPA0 2-297): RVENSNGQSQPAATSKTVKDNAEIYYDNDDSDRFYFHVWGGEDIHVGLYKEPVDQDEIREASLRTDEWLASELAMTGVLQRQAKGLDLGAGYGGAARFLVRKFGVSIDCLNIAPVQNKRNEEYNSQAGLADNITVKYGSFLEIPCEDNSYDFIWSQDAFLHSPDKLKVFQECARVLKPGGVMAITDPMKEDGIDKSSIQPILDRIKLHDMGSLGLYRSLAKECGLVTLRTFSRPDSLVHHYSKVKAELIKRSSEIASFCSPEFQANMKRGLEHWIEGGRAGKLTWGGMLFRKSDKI

| Structure (SMILES) | substrate inhibition constant (Ks / Kf) ([1]; 282 nm, pH=7.60, H4(1-20) 104 μM) [µM] | Km [1] [µM] | kcat [1] [s⁻¹] | catalytic efficiency [1] [M⁻¹ s⁻¹] | reactivity as TM0936 substrate [2] | kcat [3] [s⁻¹] |
| --- | --- | --- | --- | --- | --- | --- |
| C[S+](CC[C@H](N)C(=O)O)C[C@H]1O[C@@H](n2nnc3c(N)ncnc32)[C@H](O)[C@@H]1O (stereo partly drawn) [8-aza-SAM, S-8-aza-adenosyl-L-methionine] | 67 ± 42 | 35 ± 19 | 0.00417 ± 0.0017 | 120 |  |  |
| C[S+](CC[C@H](N)C(=O)O)C[C@H]1O[C@@H](n2cnc3c(N)ncnc32)[C@H](O)[C@@H]1O (stereo partly drawn) [SAM, S-adenosyl-L-methionine] |  | 6.8 ± 0.3 | 0.00886 ± 0.00014 | 1300 | unable to catabolize; also recorded: inability to catabolize | 0.867 ± 0.067 |
